Measured values: US5856318A (priority 1997, dated 1999)

Columns and labels:
[1] = system: NMDA receptor; settings: C. Carter et al, J. Pharm Exp. Ther. 1988; cited from earlier work
[2] = molecular target: T1, sigma receptor (Cavia porcellus, UniProt Q60492); format: binding, guinea pig; settings: read-out: Ki([3H](+)-Pent)
T1 construct: Crude P2 membrane fractions were prepared from frozen; tissue Pel-Freeze, Rogers, Ark; (frozen guinea pig brains); host or cells: guinea pig brain minus cerebella, crude synaptosomal (P2) membranes
T1 sequence (Q60492 whole entry): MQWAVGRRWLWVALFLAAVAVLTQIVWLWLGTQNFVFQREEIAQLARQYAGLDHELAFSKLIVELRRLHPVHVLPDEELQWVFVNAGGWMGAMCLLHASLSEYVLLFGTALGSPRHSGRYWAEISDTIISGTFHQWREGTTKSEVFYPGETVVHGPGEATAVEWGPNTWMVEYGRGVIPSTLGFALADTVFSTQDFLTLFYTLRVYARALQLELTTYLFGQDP

Row | Ki [2] [nM] | Compound | NMDA receptor antagonism [1]
1 | – | 1-(4-chlorophenyl)-2-[1-(4-fluorophenyl)-piperidinyl]ethanol | non-competitive NMDA receptor antagonists
2 | 3.56 ± 1.56 | Clc1ccc(CCN2CCCC(N3CCCC3)C2)cc1Cl (stereo not drawn) [Compound No. 1, 3-(1-Pyrrolidinyl)-1-[2-(3,4-dichlorophenyl)ethyl]piperidine] | –
3 | – | CC(C(O)c1ccc(O)cc1)N1CCC(Cc2ccccc2)CC1 (stereo not drawn) [ifenprodil] | non-competitive NMDA receptor antagonists
